Assays:
[1] = system: neurons acutely dissociated from mouse midbrain substantia nigra pars reticulata; experiment: Application of fluorescent sugar derivatives to acutely dissociated normal neurons (confocal imaging of uptake); assay type: cell-based
Method: This was conducted according to a method described in WO 2010/16587.
Living neurons were acutely dissociated from mouse midbrain substantia nigra pars reticulata, and to which a mixed solution containing 100 μM of 2-PBDG and 20 μM of 2-TRLG was administered at 37° C. for 5 minutes. FIGS. 1A to C represent confocal microscopic images taken immediately before this. A is a fluorescence image in blue wavelength region (Blue channel, wavelength range: 415-580 nm). The position of cells is recognized by autofluorescence. The fluorescence signal intensity is represented by pseudocolor. B is a fluorescence image in red wavelength region (Red channel, 580-740 nm). A and B were obtained both by simultaneous excitation using 405 nm Blue diode laser at an intensity of 60%, wherein photomultipliers (PMT) 1 and 2 were used respectively, and the detection sensitivity of PMT2 was raised higher than PMT1 so that the presence or absence of invasion of 2-TRLG can be detected in a sensitive manner. C is a view in which the bright field image is overlaid on the fluorescence images of A and B.
An experiment was conducted in the same manner as in Example 2.
FIGS. 2A to C represent confocal microscopic images immediately before administration of a mixed solution containing 100 μM of 2-PBLG and 20 μM of 2-TRLG at 37° C. to acutely dissociated neurons of mouse midbrain substantia nigra pars reticulata for 5 minutes.
FIG. 3 represents confocal microscopic images before and after administration of a mixed solution containing 100 μM of 2-HCDG and 20 μM of 2-TRLG at 37° C. for 3 minutes to neurons acutely dissociated from mouse midbrain substantia nigra pars reticulata. A and B are fluorescence images acquired before administration in Blue channel (415-580 nm) and Red channel (580-740 nm), respectively. The excitation wavelength is 405 nm. C is an image of differential interference (Differential Interference contrast, DIC). D is an overlay of the above-described images. E to H are the same as A to D, excepting that E to H are images acquired 4 minutes after initiation of washout of the fluorescence tracer solution after administration of the 2-HCDG+2-TRLG fluorescence tracer solution at 37° C. for 3 minutes. […] Since invasion of 2-TRLG into a cell is not observed, the plasma membrane of the neuron is thought to be maintained intactly.
Since the optimal excitation wavelength was as very low as 320 nm in this experiment, an image was acquired by Retiga-2000R CCD camera manufactured by Q-imaging via a custom-order filter constituted of an excitation filter (320 nm) (half width: 40 nm), a fluorescence filter (435 nm) (half width: 40 nm) and a dichroic mirror (409 nm), by a xenon lamp, using Nikon Ti-E real time deconvolution microscope.

[2] = system: mouse insulinoma cells (MIN6); experiment: Uptake into MIN6 cells and influence of glucose transport inhibitors (fluorescent microplate reader); assay type: cell-based
Method: Cryopreserved MIN6 cells (cells donated from Professor Miyazaki Junichi of Osaka University and cultured 5 to 8 passages) were subjected to culture according to an ordinary method, and cultures at 7 to 9 passages were used in experiments.
NaCl 129.0 mM, KCl 4.75 mM, KH2 PO4 1.19 mM, MgSO4.7H2O 1.19 mM, CaCl2.2H2O 1.0 mM, NaHCO3 5.02 mM, D-Glucose 5.6 mM, HEPES 10 mM (pH was adjusted to 7.35 with 1M NaOH). For inhibiting entrance and elimination of a fluorescently labeled glucose via gap junction/hemichannel, 0.1 mM Carbenoxolone (SIGMA #C4790) was added. This KRB solution was used as a solution for preparing a 2-PBLG solution.
2-PBDG and 2-PBLG were charged into wells at the third column and the fifth column, respectively, using a 8-channel pipette. Before administration, the autofluorescence of each well was measured beforehand by a fluorescent micro plate reader (Flex Station, manufactured by Molecular Device). The measurement conditions include Bottom Read, Ex 401 nm, Em 453 nm, Cut off 420 nm, Averaging 3, and high sensitivity of Photomultiplier. In the measurement method, Well Scan Mode was used. In Well Scan Mode, the inside of one well was divided into 9 regions of interest (diameter: 1.5 mm) and measurement was performed each independently.
Next, in wells (3C, 3E, 3G) for measuring the effect of a glucose transport inhibitor phloretin, phloretin (final 150 μM) was administered beforehand from 5 minutes prior to administration of 2-PBDG, while KRB was added to other wells (3B, 3D, 3F). Similar operation was also conducted on the fifth column where 2-PBLG was to be administered. 2-PBDG and 2-PBLG were administrated at 37° C. for 10 minutes.
After completion of administration, a diluting operation of the fluorescence solution in the well using 300 μL of a KRB solution was repeated set times each for 30 seconds. The repetition time was determined so that the fluorescence intensity detected by wells of A-th row and H-th row set as a control group was equivalent to the fluorescence intensity of a blank well containing no cell, and complete washout was confirmed in every experiment. In the case of 2-PBDG and 2-PBLG, this washout process needed 8 minutes, thus, measurement of fluorescence after administration was carried out 9 minutes after.
According to this method, even if cells having undergone a loss of the plasma membrane contacted 2-PBDG and 2-PBLG and once took up these compounds into themselves, it is judged that contribution of the increase in the fluorescence intensity to the whole observation area was ignorable level since these compounds had already been washed out of the cells when performing the measurement. This was supported by a pharmacological inhibition experiment separately in which the increase in the fluorescence intensity almost completely disappeared in the presence of an inhibitor. The above-described method was conducted in the same manner also when other inhibitor, for example, cytochalasin B (10 μM) was added.
The change of fluorescence intensity by administration of a D-glucose derivative (2-PBDG), an L-glucose derivative (2-PBLG) and PB—NH2 prepared by amidating Pacific Blue (PB) chromophore group to MIN6 cells on day of 10 of culture and the effect by a glucose transport inhibitor were confirmed in the same manner as in Example 4. PB—NH2 has the following structure (Ex max. 402 nm, Em max. 451 nm).
An experiment was conducted in the same manner as in Example 4.
The experiment was carried out 3 times independently, and the same results were obtained in all cases. In the experiment of administration of 2-PBDM, excitation occurred at a maximum excitation light wavelength of 404 nm and fluorescence was acquired at a maximum emission wavelength of 453 nm.

Structure (SMILES): O=C(NC1C(O)OC(CO)[C@H](O)C1O)c1cc2cc(F)c(O)c(F)c2oc1=O (stereo partly drawn) [2-PBLG, 2-Deoxy-2-((6,8-difluoro-7-hydroxycoumarin-3-yl)carboxamido)-L-glucose]
- intracellular fluorescence intensity in Blue channel as compared with that before administration ([1]; 100 μM with 20 μM 2-TRLG, 37° C., 5 minutes, image 4 minutes after initiation of washout): scarcely increased
- persistence of intracellular blue fluorescence after washout ([1]; images 8 and 20 minutes after initiation of washout): recovered to the autofluorescence level
- decreased value of fluorescence intensity owing to phloretin (average) ([2]; 100 μM derivative, 150 μM phloretin, MIN6 day 10, increase without phloretin as reference): 20.0%
- effect of phloretin on increase in fluorescence intensity (in words) ([2]; 100 μM derivative, phloretin 150 μM, MIN6 day 10): inhibited the increase in the fluorescence intensity by 2-PBLG slightly
- difference between fluorescence intensity of 2-PBDG and of 2-PBLG ([2]; 100 μM each, absence of phloretin, 2-PBDG = 100%): no significant difference
- fluorescence intensity after administration as compared with that before administration ([2]; 100 μM, MIN6 on day 10 of culture, Ex 401 nm, Em 453 nm): increases significantly
